In general, IC50 refers to the concentration needed to halve the response being measured.

Each structure is given as a SMILES string. Where only a bound is given, the exact number is not on record here.

The target of this test is T1, PDE7 (type VII phosphodiesterase) (Homo sapiens, UniProt Q13946).
T1 construct: endogenous in cells; host or cells: MOLT-4 (ATCC CRL-1582), soluble fraction, HiTrapQ anion-exchange fraction
T1 sequence (Q13946 whole entry): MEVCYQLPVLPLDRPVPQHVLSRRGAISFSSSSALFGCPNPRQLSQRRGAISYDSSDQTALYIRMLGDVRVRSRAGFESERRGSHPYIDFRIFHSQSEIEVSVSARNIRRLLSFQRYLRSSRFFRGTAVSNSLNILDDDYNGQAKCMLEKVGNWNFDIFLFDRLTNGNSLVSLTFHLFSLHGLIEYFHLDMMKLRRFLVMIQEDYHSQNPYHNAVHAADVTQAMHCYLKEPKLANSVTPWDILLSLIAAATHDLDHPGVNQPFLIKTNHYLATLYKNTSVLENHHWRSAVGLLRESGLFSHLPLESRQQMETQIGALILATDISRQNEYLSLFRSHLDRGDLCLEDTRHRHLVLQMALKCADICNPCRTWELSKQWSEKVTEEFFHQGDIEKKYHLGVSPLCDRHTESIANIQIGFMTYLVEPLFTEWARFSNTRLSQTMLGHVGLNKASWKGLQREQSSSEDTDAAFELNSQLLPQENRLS
Nature of the test: PDE7 inhibiting activity (3H-cAMP hydrolysis, active fraction from MOLT-4 cells). The test is classed as biochemical. The conditions noted are these: PDE7 fraction from MOLT-4 cells, 0.064 μM cAMP, 10 μM rolipram present, 2 hours at 25° C.; read-out: IC50 values for phosphodiesterase inhibiting activities (PDE7). The method, then:
To evaluate the compounds of the present invention for the ability to suppress PDE7 (type VII phosphodiesterase), the method of Biochemical Pharmacol. 48(6), 1219-1223 (1994) was partially modified to perform the following assay:
1) PDE7 (type VII phosphodiesterase) active fraction was obtained. That is, human acute lymphoblastoid lymphoma T cell strain MOLT-4 (purchasable from ATCC under ATCC No. CRL-1582) was cultured in RPMI1640 medium containing 10% fetal bovine serum to obtain 5×10^8 MOLT4 cells. The cells were harvested by centrifugation, and suspended in 10 ml of buffer A (25 mM tris-HCl, 5 mM 2-mercaptoethanol, 2 mM benzamidine, 2 mM EDTA, 0.1 mM 4-(2-aminoethyl)benzenesulfonyl hydrochloride, pH 7=7.5). The cells were homogenized in a Polytoron homogenizer, and centrifuged (4° C., 25,000 G, 10 min). The supernatant was further ultracentrifuged (4° C., 100,000 G, 60 min), and the resulting supernatant was filtered through a 0.2 μm filter to obtain a soluble fraction.
2) HiTrapQ column (5 ml×2) equilibrated with buffer A was charged with the resulting soluble fraction. Phosphodiesterase was eluted using 300 ml of buffer A containing a linear gradient solution of 0 to 0.8M sodium chloride to collect sixty 5 ml fractions. Each fraction was tested for cAMP metabolizing phosphodiesterase activity.
3) The test compounds at desired concentrations were each reacted for 2 hours at 25° C. in a reactant mixture containing 20 mM tris-HCl (pH 7.5), 1 mM MgCl2, 100 μM EDTA, 330 μg/ml bovine serum albumin, 4 μg/ml 5′-nucleotidase, 0.1 μCi^3H-cAMP (0.064 μM cAMP), 10 μM rolipram, and the type VII phosphodiesterase stored solution. QAE-Sephadex suspended in 10 mM HEPES-Na (pH 7.0) was added to the reaction mixture, and the mixture was allowed to stand for 5 minutes. Then, the supernatant was recovered, and QAE-Sephadex was further added, followed by allowing the mixture to stand for 5 minutes. Then, the resulting supernatant was measure for radioactivity.
4) IC50, as the concentration of the test compound that inhibited 50% of the metabolic activity of PDE7, was calculated for each of the compounds.
Take `COc1cc(N)ccc1-c1nc2c(c(C3CCCCC3)nn2C)c(=O)[nH]1` [Example 44, 6-(4-Amino-2-methoxyphenyl)-3-cyclohexyl-1-methyl-1,5-dihydro-4H-pyrazolo[3,4-d]pyrimidin-4-one]: the IC50 was no more than 10 nM.

`COc1cc(NC(C)=O)ccc1-c1nc2c(c(C3CCCCC3)nn2C)c(=O)[nH]1` [Example 45, N-[4-(3-cyclohexyl-1-methyl-4-oxo-4,5-dihydro-1H-pyrazolo[3,4-d]pyrimidin-6-yl)-3-methoxyphenyl]acetamide]: the IC50 is no more than 1000 nM.

Consider `COCC(=O)Nc1ccc(-c2nc3c(c(C4CCCCC4)nn3C)c(=O)[nH]2)c(OC)c1` [Example 46, N-[4-(3-cyclohexyl-1-methyl-4-oxo-4,5-dihydro-1H-pyrazolo[3,4-d]pyrimidin-6-yl)-3-methoxyphenyl]-2-methoxyacetamide], for which the IC50 was no more than 10 nM.

In the case of `CNc1ccc(-c2nc3c(c(C4CCCCC4)nn3C)c(=O)[nH]2)c(OC)c1` [Example 47, 3-Cyclohexyl-6-[2-methoxy-4-(methylamino)phenyl]-1-methyl-1,5-dihydro-4H-pyrazolo[3,4-d]pyrimidin-4-one], the IC50 is no more than 10 nM.

On to `COc1cc(S(=O)(=O)N2CCN(C)CC2)ccc1-c1nc2c(c(C3CCCCC3)nn2C)c(=O)[nH]1` [Example 50, 3-Cyclohexyl-6-{2-methoxy-4-[(4-methyl-1-piperazinyl)sulfonyl]phenyl}-1-methyl-1,5-dihydro-4H-pyrazolo[3,4-d]pyrimidin-4-one monochloride], for which the IC50 was no more than 1000 nM.

With `COc1cc(S(=O)(=O)N2CCOCC2)ccc1-c1nc2c(c(C3CCCCC3)nn2C)c(=O)[nH]1` [Example 51, 3-Cyclohexyl-6-[2-methoxy-4-(4-morpholinylsulfonyl)phenyl]-1-methyl-1,5-dihydro-4H-pyrazolo[3,4-d]pyrimidin-4-one], the IC50 is no more than 10 nM.

In the case of `COc1cc(S(=O)(=O)N2CCC(O)CC2)ccc1-c1nc2c(c(C3CCCCC3)nn2C)c(=O)[nH]1` [Example 52, 3-Cyclohexyl-6-{4-[(4-hydroxy-1-piperidinyl)sulfonyl]-2-methoxyphenyl}-1-methyl-1,5-dihydro-4H-pyrazolo[3,4-d]pyrimidin-4-one], the IC50 was no more than 10 nM.

`COc1cc(S(=O)(=O)N2CCC(C(=O)O)CC2)ccc1-c1nc2c(c(C3CCCCC3)nn2C)c(=O)[nH]1` [Example 54, 1-{[4-(3-Cyclohexyl-1-methyl-4-oxo-4,5-dihydro-1H-pyrazolo[3,4-d]pyrimidin-6-yl)-3-methoxyphenyl]sulfonyl}-4-piperidinecarboxylic acid]: the IC50 is no more than 1000 nM.

Consider `COc1cc(S(=O)(=O)NCCN(C)C)ccc1-c1nc2c(c(C3CCCCC3)nn2C)c(=O)[nH]1` [Example 56, 4-(3-Cyclohexyl-1-methyl-4-oxo-4,5-dihydro-1H-pyrazolo[3,4-d]pyrimidin-6-yl)-N-[2-(dimethylamino)ethyl]-3-methoxybenzenesulfonamide monochloride], for which the IC50 is no more than 1000 nM.

With `COCCNS(=O)(=O)c1ccc(-c2nc3c(c(C4CCCCC4)nn3C)c(=O)[nH]2)c(OC)c1` [Example 57, 4-(3-Cyclohexyl-1-methyl-4-oxo-4,5-dihydro-1H-pyrazolo[3,4-d]pyrimidin-6-yl)-3-methoxy-N-(2-methoxyethyl) benzenesulfonamide], the IC50 was no more than 1000 nM.

Take `COc1cc(S(=O)(=O)NCCO)ccc1-c1nc2c(c(C3CCCCC3)nn2C)c(=O)[nH]1` [Example 58, 4-(3-Cyclohexyl-1-methyl-4-oxo-4,5-dihydro-1H-pyrazolo[3,4-d]pyrimidin-6-yl)-N-(2-hydroxyethyl)-3-methoxybenzenesulfonamide]: the IC50 was no more than 1000 nM.

For `COc1cc(N2CCOCC2)ccc1-c1nc2c(c(C3CCCCC3)nn2C)c(=O)[nH]1` [Example 59, 3-Cyclohexyl-6-[2-methoxy-4-(4-morpholinyl)phenyl]-1-methyl-1,5-dihydro-4H-pyrazolo[3,4-d]pyrimidin-4-one], the IC50 is no more than 1000 nM.

`COc1cc(N2CCNCC2)ccc1-c1nc2c(c(C3CCCCC3)nn2C)c(=O)[nH]1` [Example 60, 3-Cyclohexyl-6-[2-methoxy-4-(1-piperazinyl)phenyl]-1-methyl-1,5-dihydro-4H-pyrazolo[3,4-d]pyrimidin-4-one]: the IC50 is no more than 10 nM.

Turning to `COc1cc(N2CCC(OC)CC2)ccc1-c1nc2c(c(C3CCCCC3)nn2C)c(=O)[nH]1` [Example 62, 3-Cyclohexyl-6-[2-methoxy-4-(4-methoxy-1-piperidinyl)phenyl]-1-methyl-1,5-dihydro-4H-pyrazolo[3,4-d]pyrimidin-4-one monomethanesulfonate], the IC50 was no more than 10 nM.

For the compound `COc1cc(N2CCN(C)CC2)ccc1-c1nc2c(c(C3CCCCCC3)nn2C)c(=O)[nH]1` [Example 64, 3-Cycloheptyl-6-[2-methoxy-4-(4-methyl-1-piperazinyl)phenyl]-1-methyl-1,5-dihydro-4H-pyrazolo[3,4-d]pyrimidin-4-one], the IC50 is no more than 1000 nM.

With `COc1cc(C(=O)O)ccc1-c1nc2c(c(C3CCCCC3)nn2C)c(=O)[nH]1` [Example 65, 4-(3-Cyclohexyl-1-methyl-4-oxo-4,5-dihydro-1H-pyrazolo[3,4-d]pyrimidin-6-yl)-3-methoxybenzoic acid], the IC50 was no more than 1000 nM.

Take `COc1cc(C(=O)N2CCN(C)CC2)ccc1-c1nc2c(c(C3CCCCC3)nn2C)c(=O)[nH]1` [Example 67, 3-Cyclohexyl-6-{2-methoxy-4-[(4-methyl-1-piperazinyl)carbonyl]phenyl}-1-methyl-1,5-dihydro-4H-pyrazolo[3,4-d]pyrimidin-4-one monomethanesulfonate]: the IC50 is no more than 1000 nM.

In the case of `COc1cc(C(=O)N2CCOCC2)ccc1-c1nc2c(c(C3CCCCC3)nn2C)c(=O)[nH]1` [Example 68, 3-Cyclohexyl-6-[2-methoxy-4-(4-morpholinylcarbonyl)phenyl]-1-methyl-1,5-dihydro-4H-pyrazolo[3,4-d]pyrimidin-4-one], the IC50 is no more than 1000 nM.

For `COc1cc(C(=O)N2CCC(O)CC2)ccc1-c1nc2c(c(C3CCCCC3)nn2C)c(=O)[nH]1` [Example 69, 3-Cyclohexyl-6-{4-[(4-hydroxy-1-piperidinyl)carbonyl]-2-methoxyphenyl}-1-methyl-1,5-dihydro-4H-pyrazolo[3,4-d]pyrimidin-4-one], the IC50 is no more than 1000 nM.

For `COc1cc(C(=O)N2CCC(OC)CC2)ccc1-c1nc2c(c(C3CCCCC3)nn2C)c(=O)[nH]1` [Example 70, 3-Cyclohexyl-6-{2-methoxy-4-[(4-methoxy-1-piperidinyl)carbonyl]phenyl}-1-methyl-1,5-dihydro-4H-pyrazolo[3,4-d]pyrimidin-4-one], the IC50 was no more than 1000 nM.

As to `COc1cc(C(=O)NCC(=O)O)ccc1-c1nc2c(c(C3CCCCC3)nn2C)c(=O)[nH]1` [Example 72, {[4-(3-Cyclohexyl-1-methyl-4-oxo-4,5-dihydro-1H-pyrazolo[3,4-d]pyrimidin-6-yl)-3-methoxybenzoyl]amino}acetic acid], the IC50 was no more than 1000 nM.

Take `COCCN(C)c1ccc(-c2nc3c(c(C4CCCCC4)nn3C)c(=O)[nH]2)c(OC)c1` [Example 73, 3-Cyclohexyl-6-{2-methoxy-4-[(2-methoxyethyl)(methyl)amino]phenyl}-1-methyl-1,5-dihydro-4H-pyrazolo[3,4-d]pyrimidin-4-one]: the concentration for half-maximal inhibition (IC50) was no more than 10 nM.

As for `COc1ccc(F)cc1-c1nc2c(c(C3CCCCC3)nn2C)c(=O)[nH]1` [Example 74, 3-Cyclohexyl-6-(5-fluoro-2-methoxyphenyl)-1-methyl-1,5-dihydro-4H-pyrazolo[3,4-d]pyrimidin-4-one], the IC50 was no more than 1000 nM.

For the compound `COc1cc(N2CCC(C(=O)O)CC2)ccc1-c1nc2c(c(C3CCCCC3)nn2C)c(=O)[nH]1` [Example 76], the IC50 was no more than 10 nM.

`COc1cc(N2CCNCC2)ccc1-c1nc2c(c(C3CCCCCC3)nn2C)c(=O)[nH]1` [Example 78, 3-Cycloheptyl-6-[2-methoxy-4-(1-piperazinyl)phenyl]-1-methyl-1,5-dihydro-4H-pyrazolo[3,4-d]pyrimidin-4-one monomethanesulfonate]: the concentration for half-maximal inhibition (IC50) is no more than 10 nM.

`COc1cc(N2CCNCC2)c(F)cc1-c1nc2c(c(C3CCCCC3)nn2C)c(=O)[nH]1` [Example 81, monomethanesulfonate]: the IC50 was no more than 10 nM.

As for `COc1cc(N2CCN(C)CC2)c(F)cc1-c1nc2c(c(C3CCCCC3)nn2C)c(=O)[nH]1` [Example 82, 3-Cyclohexyl-6-[5-fluoro-2-methoxy-4-(4-methyl-1-piperazinyl)phenyl]-1-methyl-1,5-dihydro-4H-pyrazolo[3,4-d]pyrimidin-4-one], the IC50 was no more than 10 nM.

Values taken from patent publication US7268128B2, “1,3,5-trisubstituted-5-phenyl and 5-pyridyl pyrazolopyrimidinone derivatives having PDE7 inhibiting action” (Ausbio Pharma Co., Ltd., priority 2001, dated 2007).
